Data on one molecule can be found in paper PMC10607377, “The PKG Inhibitor CN238 Affords Functional Protection of Photoreceptors and Ganglion Cells against Retinal Degeneration” (International Journal of Molecular Sciences, 2023).

The target of one assay is T1, cone CNG channel (CNGA3) (Homo sapiens, UniProt Q16281+Q9NQW8).
T1 construct: CNGA3:CNGB3 expressed in Xenopus oocytes; with CNGB3
T1 sequence (Q16281 1-694): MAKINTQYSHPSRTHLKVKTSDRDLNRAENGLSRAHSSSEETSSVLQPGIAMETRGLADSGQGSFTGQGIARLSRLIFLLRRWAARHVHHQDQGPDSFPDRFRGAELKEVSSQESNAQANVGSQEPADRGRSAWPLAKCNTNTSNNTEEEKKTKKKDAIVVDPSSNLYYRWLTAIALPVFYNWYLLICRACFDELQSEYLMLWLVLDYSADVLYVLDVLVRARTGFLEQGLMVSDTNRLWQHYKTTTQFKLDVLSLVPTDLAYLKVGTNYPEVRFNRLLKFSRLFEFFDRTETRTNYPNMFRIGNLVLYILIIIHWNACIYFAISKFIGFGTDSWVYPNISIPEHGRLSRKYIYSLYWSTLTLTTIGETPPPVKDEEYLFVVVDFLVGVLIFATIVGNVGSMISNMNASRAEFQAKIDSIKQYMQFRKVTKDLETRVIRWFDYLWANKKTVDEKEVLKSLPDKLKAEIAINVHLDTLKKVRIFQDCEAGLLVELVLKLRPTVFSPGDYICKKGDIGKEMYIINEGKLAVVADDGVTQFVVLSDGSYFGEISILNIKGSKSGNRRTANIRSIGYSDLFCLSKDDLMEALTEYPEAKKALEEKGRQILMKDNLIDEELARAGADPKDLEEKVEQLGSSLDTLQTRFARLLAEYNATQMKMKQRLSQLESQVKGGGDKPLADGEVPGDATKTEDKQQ
T1 sequence (Q9NQW8 1-809): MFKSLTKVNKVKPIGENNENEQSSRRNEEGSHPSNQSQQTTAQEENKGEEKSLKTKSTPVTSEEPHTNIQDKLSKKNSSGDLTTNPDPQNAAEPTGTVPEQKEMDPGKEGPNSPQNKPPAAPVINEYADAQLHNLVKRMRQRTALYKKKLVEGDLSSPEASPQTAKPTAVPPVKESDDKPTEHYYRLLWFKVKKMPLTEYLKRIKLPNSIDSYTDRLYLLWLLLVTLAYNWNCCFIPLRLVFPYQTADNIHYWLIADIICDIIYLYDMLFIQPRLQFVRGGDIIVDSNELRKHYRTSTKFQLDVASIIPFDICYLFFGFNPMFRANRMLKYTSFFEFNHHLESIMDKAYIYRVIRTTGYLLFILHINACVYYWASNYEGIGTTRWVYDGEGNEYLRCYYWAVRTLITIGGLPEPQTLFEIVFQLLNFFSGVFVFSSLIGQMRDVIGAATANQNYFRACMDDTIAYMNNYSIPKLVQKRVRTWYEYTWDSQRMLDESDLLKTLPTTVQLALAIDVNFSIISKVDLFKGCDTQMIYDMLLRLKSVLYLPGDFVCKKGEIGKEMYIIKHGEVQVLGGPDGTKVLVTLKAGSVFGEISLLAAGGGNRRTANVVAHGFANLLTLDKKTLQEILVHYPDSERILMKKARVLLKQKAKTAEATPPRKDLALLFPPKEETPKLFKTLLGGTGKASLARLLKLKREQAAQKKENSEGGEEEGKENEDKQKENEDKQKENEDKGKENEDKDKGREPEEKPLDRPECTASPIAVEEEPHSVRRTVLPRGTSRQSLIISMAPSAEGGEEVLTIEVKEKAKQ
The assay can be described thus: inside-out patch-clamp, concentration-activation. It counts as cell-based. In general terms: The patch-clamp technique gives a direct electrical read-out from membranes.

The target of another assay is T2, PKG1β (Homo sapiens, UniProt Q13976).
T2 construct: gene PRKG1
T2 sequence (Q13976 4-686 isoform Q13976-2): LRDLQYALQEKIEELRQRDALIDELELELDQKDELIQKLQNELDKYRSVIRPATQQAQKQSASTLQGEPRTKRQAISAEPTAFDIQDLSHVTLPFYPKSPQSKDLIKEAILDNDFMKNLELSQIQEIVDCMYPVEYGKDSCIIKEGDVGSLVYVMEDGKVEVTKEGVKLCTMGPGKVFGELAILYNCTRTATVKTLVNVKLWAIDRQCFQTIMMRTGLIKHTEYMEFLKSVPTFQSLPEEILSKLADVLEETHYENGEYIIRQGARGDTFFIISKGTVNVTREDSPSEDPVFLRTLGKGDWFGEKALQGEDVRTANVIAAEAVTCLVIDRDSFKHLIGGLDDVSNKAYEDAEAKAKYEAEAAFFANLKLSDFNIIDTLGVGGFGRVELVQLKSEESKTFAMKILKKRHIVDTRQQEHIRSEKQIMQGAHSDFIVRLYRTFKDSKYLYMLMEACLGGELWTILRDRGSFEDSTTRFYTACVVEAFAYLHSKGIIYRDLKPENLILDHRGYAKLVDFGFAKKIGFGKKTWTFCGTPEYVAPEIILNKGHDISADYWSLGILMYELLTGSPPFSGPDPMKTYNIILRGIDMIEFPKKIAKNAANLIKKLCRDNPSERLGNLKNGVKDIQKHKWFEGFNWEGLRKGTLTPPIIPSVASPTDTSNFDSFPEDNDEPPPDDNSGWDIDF

The target of another assay is T3, PKG2 (Homo sapiens, UniProt Q13237).
T3 construct: gene PRKG2; FLAG-Strep-Strep-tagged human PKG2 (1–762) WT
T3 sequence (Q13237 1-762): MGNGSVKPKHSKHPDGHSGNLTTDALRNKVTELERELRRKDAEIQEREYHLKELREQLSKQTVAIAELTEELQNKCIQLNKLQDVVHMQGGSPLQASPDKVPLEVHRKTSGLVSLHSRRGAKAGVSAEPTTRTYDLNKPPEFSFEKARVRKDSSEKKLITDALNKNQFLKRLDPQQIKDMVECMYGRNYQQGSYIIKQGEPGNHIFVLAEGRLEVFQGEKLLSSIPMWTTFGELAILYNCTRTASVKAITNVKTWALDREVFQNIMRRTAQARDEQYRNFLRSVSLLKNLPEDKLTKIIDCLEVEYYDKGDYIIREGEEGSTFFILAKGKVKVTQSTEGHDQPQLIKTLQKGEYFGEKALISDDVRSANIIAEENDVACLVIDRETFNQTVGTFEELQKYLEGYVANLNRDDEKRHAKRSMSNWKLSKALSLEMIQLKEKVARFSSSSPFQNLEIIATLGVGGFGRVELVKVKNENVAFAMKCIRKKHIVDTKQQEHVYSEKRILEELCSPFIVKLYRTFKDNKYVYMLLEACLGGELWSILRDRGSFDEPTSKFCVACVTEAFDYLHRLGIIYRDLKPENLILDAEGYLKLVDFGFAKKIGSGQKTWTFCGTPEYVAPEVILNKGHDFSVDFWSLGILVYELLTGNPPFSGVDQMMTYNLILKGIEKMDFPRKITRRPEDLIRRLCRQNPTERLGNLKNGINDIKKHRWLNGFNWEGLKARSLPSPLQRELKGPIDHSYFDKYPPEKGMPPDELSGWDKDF
The assay can be described thus: coupled spectrophotometric kinase activation assay. In kind it is biochemical.

Take `Nc1nc2c(ncn2[C@@H]2O[C@@H]3COP(=O)(O)O[C@H]3[C@H]2O)c(=O)[nH]1` [cGMP]: the EC50 (usually the concentration at which the effect is half-maximal) at cone CNG channel (CNGA3) was 10.7 µM. For the same molecule, the “coupled spectrophotometric kinase activation assay” value at PKG1β and at PKG2 was “Activation with cGMP was determined for all PKG isoforms” in each case.
